Experimental data taken from patent US9232796B2, “Herbicidal compositions comprising 4-amino-3-chloro-5-fluoro-6-(4-chloro-2-fluoro-3-methoxyphenyl) pyridine-2-carboxylic acid or a derivative thereof and acetyl-CoA carboxylase (ACCase) inhibitors” (DOW AGROSCIENCES LLC, priority 2012, dated 2016).

Key:
CYPDI = assay: Example I postemergence foliar-applied, greenhouse, direct seeded rice weeds; assay type: in vivo, Cyperus difformis L.; details: 4.38 gae/ha
Source text: (§1) Seeds or nutlets of the desired test plant species were planted in a soil matrix prepared by mixing a loam or sandy loam soil (e.g., 28.6 percent silt, 18.8 percent clay, and 52.6 percent sand, with a pH of about 5.8 and an organic matter content of about 1.8 percent) and calcareous grit in an 80 to 20 ratio. The soil matrix was contained in plastic pots with a volume of 1 quart and a surface area of 83.6 square centimeters (cm^2). When required to ensure good germination and healthy plants, a fungicide treatment and/or other chemical or physical treatment was applied. The plants were grown for 8-22 days in a greenhouse with an approximate 14 hr. photoperiod which was maintained at about 29° C. during the day and 26° C. during the night. Nutrients (Peters Excel® 15-5-15 5-Ca 2-Mg and iron chelate) were applied in the irrigation solution as needed and water was added on a regular basis. Supplemental lighting was provided with overhead metal halide 1000-Watt lamps as necessary. The plants were employed for testing when they reached the first through fourth true leaf stage.
(§2) Treatments consisted of the acid or esters of 4-amino-3-chloro-5-fluoro-6-(4-chloro-2-fluoro-3-methoxy-phenyl)pyridine-2-carboxylic acid (Compound A), each formulated as an SC (suspension concentrate), and various herbicidal components alone and in combination.
(§3) Other herbicidal components were applied on an acid equivalent (ae) or active ingredient (ai) basis and included acetyl coA carboxylase (ACCase)-inhibiting herbicides (cyclohexanedione and aryloxyphenoxypropionate chemical classes) cyhalofop-butyl formulated as Clincher® SF (285 gr ai/L EC), diclofop-methyl formulated as Hoelon® 3EC, fenoxaprop-p-ethyl+isoxadifen-ethyl formulated as RiceStar® HT (0.58 lb./gal EC), fenoxaprop-p-ethyl+mefenpyr diethyl formulated as Puma® IEC, metamifop formulated as Metamifop EC, haloxyfop-methyl formulated as Gallant Super®, fluazifop-p-butyl formulated as Fusilade® DX, quizalofop-p-ethyl formulated as Assure® II, profoxydim formulated as Aura® 20EC, clethodim applied as Intensity®, sethoxydim formulated as Poast®, and tralkoxydim formulated as Achieve®.
(§4) Treatment requirements were calculated based upon the rates being tested, the concentration of active ingredient or acid equivalent in the formulation, and a 12 mL application volume at a rate of 187 L/ha.
(§5) For treatments comprised of formulated compounds, measured amounts of compounds were placed individually in 25 mL glass vials and diluted in a volume of 1.25% (v/v) Agri-Dex® crop oil concentrated to obtain 12× stock solutions. […] Application solutions were prepared by adding an appropriate amount of each stock solution (e.g., 1 mL) and diluted to the appropriate final concentrations with the addition of 10 mL of an aqueous mixture of 1.25% (v/v) crop oil concentrate so that the final spray solutions contained 1.25+/−0.05% (v/v) crop oil concentrate.
All stock solutions and applications solutions were visually inspected for compound compatibility prior to application. […]
(§6) The treated plants and control plants were placed in a greenhouse as described above and watered by sub-irrigation to prevent wash-off of the test compounds. After approximately 3 weeks, the condition of the test plants as compared with that of the untreated plants was determined visually and scored on a scale of 0 to 100 percent where 0 corresponds to no injury or growth inhibition and 100 corresponds to complete kill. […]

BRAPP = assay: as above; assay type: in vivo, Brachiaria platyphylla (Griseb.) Nash
Source text: as §1, §2, §3, §4, §5
All stock solutions and applications solutions were visually inspected for compound compatibility prior to application. Spray solutions were applied to the plant material with an overhead Mandel track sprayer equipped with a 8002E nozzles calibrated to deliver 187 L/ha over an application area of 0.503 m^2 at a spray height of 18 to 20 inches (46 to 50 cm) above average plant canopy height. Control plants were sprayed in the same manner with the solvent blank.
as §6

DIGSA = assay: as above; assay type: in vivo, Digitaria sanguinalis (L.) Scop.
Source text: as §1
Treatments consisted of the acid or esters of 4-amino-3-chloro-5-fluoro-6-(4-chloro-2-fluoro-3-methoxy-phenyl)pyridine-2-carboxylic acid (Compound A), each formulated as an SC (suspension concentrate), and various herbicidal components alone and in combination. […]
as §4
For treatments comprised of formulated compounds, measured amounts of compounds were placed individually in 25 mL glass vials and diluted in a volume of 1.25% (v/v) Agri-Dex® crop oil concentrated to obtain 12× stock solutions. […]
as §6

LOLMU = assay: Example IV postemergence foliar-applied, greenhouse, cereal crops weeds; assay type: in vivo, Lolium multiflorum Lam.
Description: Seeds of the desired test plant species were planted in Sun Gro MetroMix® 306 planting mixture, which typically has a pH of 6.0 to 6.8 and an organic matter content of about 30 percent, in plastic pots with a surface area of 103.2 square centimeters (cm^2). When required to ensure good germination and healthy plants, a fungicide treatment and/or other chemical or physical treatment was applied. The plants were grown for 7-36 days in a greenhouse with an approximate 14 hour photoperiod which was maintained at about 18° C. during the day and about 17° C. during the night. Nutrients and water were added on a regular basis and supplemental lighting was provided with overhead metal halide 1000-Watt lamps as necessary. The plants were employed for testing when they reached the second or third true leaf stage.
Treatments consisted of the benzyl ester of 4-amino-3-chloro-5-fluoro-6-(4-chloro-2-fluoro-3-methoxy-phenyl)pyridine-2-carboxylic acid (Compound A), formulated as an SC, a second cereal herbicide alone and then both in combination.
Other herbicidal components were applied on an active ingredient basis and included acetyl-CoA carboxylase (ACCase)-inhibiting herbicides clodinafop-propargyl, fenoxaprop-P-ethyl, pinoxaden and tralkoxydim.
Measured aliquots of benzyl ester of 4-amino-3-chloro-5-fluoro-6-(4-chloro-2-fluoro-3-methoxy-phenyl)pyridine-2-carboxylic acid (Compound A) were placed in 25 milliliter (mL) glass vials and diluted in a volume of 1.25% (v/v) Agri-Dex® crop oil concentrate to obtain stock solutions. Compound requirements are based upon a 12 mL application volume at a rate of 187 liters per hectare (L/ha). Spray solutions of the second cereal herbicide and experimental compound mixtures were prepared by adding the stock solutions to the appropriate amount of dilution solution to form 12 mL spray solution with active ingredients in two- and three-way combinations. Formulated compounds were applied to the plant material with an overhead Mandel track sprayer equipped with an 8002E nozzle calibrated to deliver 187 L/ha over an application area of 0.503 square meters (m^2) at a spray height of 18 inches (46 cm) above average plant canopy. Control plants were sprayed in the same manner with the solvent blank.
The treated plants and control plants were placed in a greenhouse as described above and watered by sub-irrigation to prevent wash-off of the test compounds. After 20-22 days, the condition of the test plants as compared with that of the control plants was determined visually and scored on a scale of 0 to 100 percent where 0 corresponds to no injury and 100 corresponds to complete kill.
Colby's equation was used to determine the herbicidal effects expected from the mixtures (Colby, S. R. 1967. Calculation of the synergistic and antagonistic response of herbicide combinations. Weeds 15:20-22.).
The following equation was used to calculate the expected activity of mixtures containing two active ingredients, A and B: Expected=A+B−(A×B/100)

| SMILES | Visual Weed Control (%) - 20 DAA CYPDI Obs (CYPDI) [%] | Visual Weed Control (%) - 22 DAA CYPDI Obs (CYPDI) [%] | Visual Weed Control (%) - 20 DAA BRAPP Obs (BRAPP; 4.38 gae/ha) [%] | Visual Weed Control (%) - 20 DAA BRAPP Obs (BRAPP; 8 gae/ha) [%] | Visual Weed Control (%) - 20 DAA BRAPP Obs (BRAPP; 8.75 gae/ha) [%] | Visual Weed Control (%) - 20 DAA BRAPP Obs (BRAPP; 16 gae/ha) [%] | Visual Weed Control (%) - 20 DAA BRAPP Obs (BRAPP; 32 gae/ha) [%] | Visual Weed Control (%) - 20 DAA DIGSA Obs (DIGSA; 8 gae/ha) [%] | Visual Weed Control (%) - 20 DAA DIGSA Obs (DIGSA; 16 gae/ha) [%] | Visual Weed Control (%) - 20 DAA DIGSA Obs (DIGSA; 32 gae/ha) [%] | Visual Weed Control (%) - 21 DAA LOLMU Obs (LOLMU; Compound A Benzyl Ester 5 gai/ha) [%] | Visual Weed Control (%) - 21 DAA LOLMU Obs (LOLMU; Compound A Benzyl Ester 10 gai/ha) [%] |
| --- | --- | --- | --- | --- | --- | --- | --- | --- | --- | --- | --- | --- |
| COc1c(Cl)ccc(-c2nc(C(=O)O)c(Cl)c(N)c2F)c1F [Compound A Acid, 4-amino-3-chloro-6-(4-chloro-2-fluoro-3-methoxyphenyl)-5-fluoropyridine-2-carboxylic acid] | 80 | 60 |  |  |  |  |  |  |  |  |  |  |
| COc1c(Cl)ccc(-c2nc(C(=O)OCc3ccccc3)c(Cl)c(N)c2F)c1F [Compound A Benzyl Ester, benzyl ester of 4-amino-3-chloro-5-fluoro-6-(4-chloro-2-fluoro-3-methoxy-phenyl)pyridine-2-carboxylic acid] |  |  | 50 | 70 | 70 | 75 | 90 | 15 | 25 | 35 | 0 | 0 |
